Reference: patent publication US20190224213A1, “VAGINAL COMPOSITION COMPRISING A COMBINATION OF ESTROGEN AND VITAMIN D” (CHEMO RESEARCH S.L., priority 2016, published 2019)
Each block holds one compound with its values, some of them ahead of it.

Legend:
[1] = Body weight evolution in ovariectomized rats during 6-week local treatment; format: in vivo, rat; settings: 6-week treatment, irrespective of the dose
Description: (§1) 8-10 weeks-old female Sprague Dawley rats (Janvier, France) are first acclimated during a period of time of one week or more.
(§2) The acclimated rats undergo a bilateral ovariectomy (at “Day 0”), so as to induce an experimental menopause.
(§3) Three weeks after ovariectomy (at Day 21), the ovariectomized rats are divided in five distinct groups of at least eight animals per group, respectively: • Group 1: the ovariectomized rats receive no treatment at all • Group 2: the ovariectomized rats are administered once daily with an ovule comprising a liquid saline (placebo) • Group 3: the ovariectomized rats are administered once daily with an ovule comprising estradiol alone, in the absence of vitamin D analog • Group 4: the ovariectomized rats are administered once daily with an ovule comprising vitamin D analog alone, in the absence of estradiol. • Group 5: the ovariectomized rats are administered once daily with an ovule comprising (i) the combination of estradiol and vitamin D analog.
(§4) Each of the Groups 1, 2, 3, 4 and 5 of ovariectomized rats receives the indicated treatment during a period of time of six weeks (thus until Day 63).
The body weight of each tested animal is monitored twice a week.

vaginal epithelium [2] = assay: Vaginal epithelium thickness evaluation in ovariectomized rats; format: in vivo, rat; settings: 6-week treatment
Description: as §1, §2, §3, §4
One part of the vagina tissue material is paraffin-embedded. Slices of the paraffin-embedded vaginal tissue are stained for studying and measuring the vaginal epithelium thickness as well as the vaginal epithelium morphology. […]

vaginal epithelium [3] = assay: Vaginal Maturation Index: percentage of cornified cells in vaginal smears of ovariectomized rats; format: in vivo, rat; settings: calcitriol, irrespectively of the doses tested
Experimental: as §3, §4
(§5) Smears of vaginal tissue are collected from each of the tested animal by gentle scraping along the wall of the vagina the day before the first treatment and the day following the last treatment for determining the Vaginal Maturation Index (VMI).
(§6) For each rat, 2 samples are taken by gentle scraping along the wall of the vagina. […]
(§7) VMI is assessed as a ratio obtained through performing a random count of 3 major cell types. […]

vaginal epithelium [4] = assay: Vaginal Maturation Index: percentage of leukocytes in vaginal smears of ovariectomized rats; format: in vivo, rat; settings: calcitriol alone at 0.006 μg
Experimental: as §3, §4, §5, §6, §7

[5] = Calcium plasma level in ovariectomized rats; format: in vivo, rat
Experimental: as §3, §4

vaginal epithelium [6] = settings: oral 0.500 mcg calcitriol/day, at least one year, vs non-supplemented postmenopausal women; cited from earlier work
[7] = system: vaginal maturation index and urogenital symptoms; settings: oral raloxifene 60 mg/day with 400 IU vitamin D and 600 mg calcium, 3 months, vs risedronate-based regimen; cited from earlier work
vaginal epithelium [8] = assay: Histology of the vaginal tissue cornified cell layer in ovariectomized rats (FIG. 3); format: in vivo, rat
Experimental: as §3, §4
One part of the vagina tissue material is paraffin-embedded. Slices of the paraffin-embedded vaginal tissue are stained for studying and measuring the vaginal epithelium thickness as well as the vaginal epithelium morphology.
Vaginal tissue is then separated into two parts: • one half is fixed in 10% neutral buffered formalin and paraffin-embedded for epithelium thickness evaluation and morphology (H&E coloration) • the second half will be immediately frozen and stored at −80° C. for further evaluation.
Vaginal tissue is embedded in paraffin, sectioned and stained with hematoxylin/eosine (2 slides/rat) using a fully automated multi-stainer system for histological analysis, the Multistainer ST5020 in conjunction with the CV5030 Coverslipper marketed by the Company Leica Biosystems (Germany).

vaginal atrophy = settings: vaginal suppository 1000 IU, daily for 8 weeks, 44 postmenopausal women; cited from earlier work

- calcium plasma level ([5]; calcitriol dose 0.006 μg): did not cause any significant change
- calcium plasma level ([5]; dose of 0.08 μg): significantly increased
- calcium plasma level ([5]; dose of 0.1 μg): significantly increased
Compound: C=C1/C(=C\C=C2/CCC[C@]3(C)[C@@H]([C@H](C)CCCC(C)(C)O)CC[C@@H]23)C[C@@H](O)C[C@@H]1O [Calcitriol, 1α,25-dihydroxyvitamin D3]
- body weight evolution [1]: did not cause any change
- vaginal epithelium thickness as compared to placebo (vaginal epithelium [2]; calcitriol alone, irrespective of the dose tested): did not cause any change
- content of the vaginal epithelium cornified cells (vaginal epithelium [3]): no significant change
- vaginal epithelium content in leukocytes (vaginal epithelium [4]): no effect
- calcium plasma level: significance versus placebo ([5]; Calcitriol 0.08 μg): **** (“****” means p<0.001 versus placebo)
- calcium plasma level: significance versus placebo ([5]; Calcitriol 0.1 μg): **** (“****” means p<0.001 versus placebo)
- squamous maturation of the vaginal epithelium (vaginal epithelium [6]): resulted in squamous maturation

Compound: O=C(c1ccc(OCCN2CCCCC2)cc1)c1c(-c2ccc(O)cc2)sc2cc(O)ccc12 [raloxifene]
- vaginal maturation index [7]: improvement
- vaginal pH [7]: improvement

Compound: C[C@]12CC[C@@H]3c4ccc(O)cc4CC[C@H]3[C@@H]1CC[C@@H]2O [Estradiol, (17beta)-estra-1,3,5(10)-triene-3,17-diol]
- body weight evolution [1]: did not cause any change
- vaginal epithelium thickness as compared to placebo (vaginal epithelium [2]; 0.4 μg dose of estradiol): high increase
- cornified cell layer in histological photograph (vaginal epithelium [8]; 0.02 μg dose of estradiol (FIG. 3B)): does not cause a detectable change
- cornified cell layer in histological photograph (vaginal epithelium [8]; 0.08 μg estradiol (FIG. 3C)): thickness and a density which increase with the increasing doses
- cornified cell layer in histological photograph (vaginal epithelium [8]; 0.4 μg estradiol (FIG. 3D)): thickness and a density which increase with the increasing doses

Compound: vitamin D
- superficial cells in the vaginal epithelium (vaginal atrophy): significant increase
- vaginal pH (vaginal atrophy): significant decrease
